Assay results taken from BindingDB's records for PubMed 39369480 (Xuzhou Medical University).

Experiment: Inhibition of P-gp in human K562/A02 cells over expressing P-gp assessed as reversal of multi-drug resistance by measuring ADR IC50 measured after 72 hrs by CCK-8 assay

SMILES | IC50 [nM]
COc1cc2c(cc1OC)CN(CCc1ccc(/N=N/c3ccccc3NC(=O)c3ccc(Cl)c(Cl)c3)cc1)CC2 | 1600
COc1cc2c(cc1OC)CN(CCc1ccc(/N=N/c3ccccc3NC(=O)c3ccc(C)c(C)c3)cc1)CC2 | 168
COc1cc2c(cc1OC)CN(CCc1ccc(/N=N/c3ccccc3NC(=O)c3ccc(F)c(F)c3)cc1)CC2 | 108
COc1cc2c(cc1OC)CN(CCc1ccc(/N=N/c3ccccc3NC(=O)c3cc(OC)c(OC)c(OC)c3)cc1)CC2 | 1290
COc1ccc(C(=O)Nc2ccccc2/N=N/c2ccc(CCN3CCc4cc(OC)c(OC)cc4C3)cc2)cc1 | 88
COc1cc2c(cc1OC)CN(CCc1ccc(/N=N/c3ccccc3NC(=O)c3ccc([N+](=O)[O-])cc3)cc1)CC2 | 120
COc1cc2c(cc1OC)CN(CCc1ccc(/N=N/c3ccccc3NC(=O)c3ccc(Cl)cc3)cc1)CC2 | 83
COc1cc2c(cc1OC)CN(CCc1ccc(/N=N/c3ccccc3NC(=O)c3ccc(C(C)(C)C)cc3)cc1)CC2 | 105
COc1cc2c(cc1OC)CN(CCc1ccc(NC(=O)c3ccccc3/N=N/c3ccccc3)cc1)CC2 | 92
COc1ccccc1/N=N/c1ccccc1C(=O)Nc1ccc(CCN2CCc3cc(OC)c(OC)cc3C2)cc1 | 275
COc1cc2c(cc1OC)CN(CCc1ccc(NC(=O)c3ccccc3/N=N/c3cccc(Cl)c3)cc1)CC2 | 84

Further compounds by falling IC50, results first:

IC50 [nM] | SMILES
82 | COc1cc2c(cc1OC)CN(CCc1ccc(NC(=O)c3ccccc3/N=N/c3ccc(Cl)cc3)cc1)CC2
70 | COc1cc2c(cc1OC)CN(CCc1ccc(/N=N/c3ccccc3NC(=O)c3ccccc3)cc1)CC2
68 | COc1cccc(C(=O)Nc2ccccc2/N=N/c2ccc(CCN3CCc4cc(OC)c(OC)cc4C3)cc2)c1
68 | COc1cc2c(cc1OC)CN(CCc1ccc(NC(=O)c3ccccc3/N=N/c3ccc(C)cc3)cc1)CC2
50 | COc1cc2c(cc1OC)CN(CCc1ccc(/N=N/c3ccccc3NC(=O)c3cccc([N+](=O)[O-])c3)cc1)CC2
44 | COc1cc2c(cc1OC)CN(CCc1ccc(/N=N/c3ccccc3NC(=O)c3ccc(C)cc3)cc1)CC2
43 | COc1cc2c(cc1OC)CN(CCc1ccc(/N=N/c3ccccc3NC(=O)c3cccc(Cl)c3)cc1)CC2
35 | COc1ccc(C(=O)Nc2ccccc2/N=N/c2ccc(CCN3CCc4cc(OC)c(OC)cc4C3)cc2)cc1OC
34 | COc1ccc(C(=O)Nc2ccccc2C(=O)Nc2ccc(CCN3CCc4cc(OC)c(OC)cc4C3)cc2)cc1OC [N-(2-(4-(2-(6,7-dimethoxy-3,4-dihydroisoquinolin-2(1H)-yl)ethyl)phenylcarbamoyl)phenyl)-3,4-dimethoxybenzamide]
32 | COc1cc2c(cc1OC)CN(CCc1ccc(/N=N/c3ccccc3NC(=O)c3ccccc3Cl)cc1)CC2
20 | COc1cc2c(cc1OC)CN(CCc1ccc(/N=N/c3ccccc3NC(=O)c3ccccc3[N+](=O)[O-])cc1)CC2
15 | COc1cc2c(cc1OC)CN(CCc1ccc(/N=N/c3ccccc3NC(=O)c3ccccc3OC)cc1)CC2
